Values of other authors as cited in patent US20200241005A1, “COMPOSITIONS AND METHODS FOR THE DIAGNOSIS AND TREATMENT OF DISEASES OF THE LIVER” (Viscient Biosciences, Inc., priority 2019, published 2020).

Key:
SLC1A1 [1] = conditions: SLC1A1 vs SLC1A2 and SLC1A3
SLC1A1 [2] = conditions: astroglial cells; unknown mechanism

In the case of `N[C@H](C(=O)O)[C@H](Cc1ccccc1)C(=O)O` [L-beta-benzyl-aspartate], the “preference for SLC1A1 over its most related homologs SLC1A2 and SLC1A3” value (SLC1A1 [1]) is given as 10 fold.

For `Nc1nc2ccc(OC(F)(F)F)cc2s1` [Riluzole], the “effect on SLC1A1 expression” value (SLC1A1 [2]) is listed as “enhances SLC1A1 expression”.
